Experimental data from US5912231A, “Substitution analogues of magainin peptides” (priority 1994, dated 1999).
Like-named read-outs stand apart in the source and are kept apart here. Residues, ends and D or L forms follow the SMILES beside them.

What was measured:
Format in all cases: cell-based
Escherichia coli = settings: 6 h
Experimental: (§1) Antimicrobial assays (for Examples 3 to 27) were carried out in 96-well tissue culture plates. Each well was incubated with a given microorganism (Escherichia coli, Staphylococcus epidermidis, Staphylococcus aureus, or Pseudomonas aeruginosa) suspended in LB medium (Examples 3-17), or TSB medium (Examples 18-27). Upon the addition of Magainin I or its substitution analogues, (dissolved in 1×PBS, pH 7.0) each well contained a final cell density of 1.0×10^6 colony forming units (CFU)/ml. The final peptide concentrations used were 100 μg/ml., 75.0 μg/ml, 50.0 μg/ml, 25 μg/ml, 12.5 μg/ml, 10 μg/ml, 5μg/ml, 2.5 μg/ml, and 1.25 μg/ml.
(§2) Addition of peptides to the wells was defined as time zero. At six hours, the plates were placed in a Titertek Multiskan apparatus and the O.D.620 determined. The plates as well as the initial innoculum were incubated at 37° C.
(§3) Five wells per plate contained media alone, while five others contained medium plus cells. These controls were used to eliminate the possibility of media contamination while providing a measure of uninhibited growth of the microorganisms.
(§4) The degree of peptide activity was determined by comparing the substitution analogues with uninhibited growth of the control cells over a six-hour period.

Pseudomonas aeruginosa = settings: TSB medium, 6 h
Experimental: as §1, §2, §3, §4

[1] = tested on: Staphylococcus epidermidis; settings: 6 h
Experimental: as §1, §2, §3, §4

Staphylococcus aureus = settings: at 50 μg/ml peptide; LB medium; 6 h
Experimental: as §1, §2, §3, §4

[2] = at 10 μg/ml peptide, TSB medium
[3] = at 25 μg/ml peptide, TSB medium

CC[C@H](C)[C@H](NC(=O)CN)C(=O)NCC(=O)N[C@@H](CCCCN)C(=O)N[C@@H](CCCCN)C(=O)N[C@@H](CC(C)C)C(=O)N[C@@H](Cc1c[nH]cn1)C(=O)N[C@@H](CCCCN)C(=O)N[C@@H](CCCCN)C(=O)NCC(=O)N[C@@H](CCCCN)C(=O)N[C@@H](Cc1ccccc1)C(=O)NCC(=O)N[C@@H](CCCCN)C(=O)N[C@@H](Cc1ccccc1)C(=O)N[C@@H](CCCCN)C(=O)NCC(=O)N[C@@H](C)C(=O)N[C@H](C(=O)N[C@@H](CC(C)C)C(=O)N[C@@H](CCCCN)C(=O)N[C@@H](C)C(=O)O)[C@@H](C)CC [Example 8] (H-GIGKKLHKKGKFGKFKGAILKA-OH)
100%: % effective growth inhibition of E. coli (Escherichia coli; at 5 μg/ml peptide, LB medium) | % effective growth inhibition of E. coli (Escherichia coli; at 5 μg/ml peptide, TSB medium) | % effective growth inhibition of E. coli (Escherichia coli; [2]) | % effective growth inhibition of E. coli (Escherichia coli; at 25 μg/ml peptide, LB medium) | % effective growth inhibition of E. coli (Escherichia coli; [3]) | % effective growth inhibition of E. coli (Escherichia coli; at 75 μg/ml peptide, LB medium) | % effective growth inhibition of E. coli (Escherichia coli; at 100 μg/ml peptide, LB medium) | % effective growth inhibition of P. aeruginosa (Pseudomonas aeruginosa; at 5 μg/ml peptide) | % effective growth inhibition of P. aeruginosa (Pseudomonas aeruginosa; at 10 μg/ml peptide) | % effective growth inhibition of P. aeruginosa (Pseudomonas aeruginosa; at 25 μg/ml peptide) | % effective growth inhibition of S. epidermidis ([1]; at 5 μg/ml peptide, TSB medium) | % effective growth inhibition of S. epidermidis [1, 2] | % effective growth inhibition of S. epidermidis [1, 3] | % effective growth inhibition of S. epidermidis ([1]; at 50 μg/ml peptide, LB medium) | % effective growth inhibition of S. epidermidis ([1]; at 75 μg/ml peptide, LB medium)

GIGKFILHAAGKFGKAFVGIMKS (GIGKFLHAAGKFGKAFVGIMKS) [Magainin I, residue 19 deleted, residue 8 alanine]
100%: % effective growth inhibition of E. coli (Escherichia coli; at 2.5 μg/ml peptide, LB medium) | % effective growth inhibition of S. aureus (Staphylococcus aureus) | % effective growth inhibition of S. epidermidis ([1]; at 25 μg/ml peptide, LB medium)
